The values that follow are results of earlier work, collected in patent US20150320814A1, “NUTRACEUTICAL FORMULATION FOR TREATMENT OF ANXIETY AND DEPRESSION” (priority 2014, published 2015).

The test system of one series is GABA receptors. Particulars: isolated from skullcap.
The next series relates to alpha brain waves. Particulars: sixty minutes after oral administration, volunteers.
For series [1] the following is noted: in vivo.
Series [2] relates to patients with clinical depression. Particulars: patients with clinical depression treated with nicotinic acid.
Series [3] relates to patients with major depression. Particulars: 125-300 mg of magnesium with each meal and at bedtime.

Turning to `O=C(O)[C@H]1O[C@@H](Oc2cc3oc(-c4ccccc4)cc(=O)c3c(O)c2O)[C@H](O)[C@@H](O)[C@@H]1O` [baicalin], in the series on GABA receptors, the “activity at GABA receptors” value is given as “agonists of GABA receptors”. Turning to `NCCCC(=O)O` [GABA, gamma aminobutyric acid], the “alpha brain waves by electroencephalogram” value with alpha brain waves is on record as “increases in alpha brain waves”.

`CCNC(=O)CC[C@H](N)C(=O)O` [Theanine, L-theanine]: the “blood brain barrier passage” value in series [1] is “passes through the blood brain barrier”. For the compound `O=c1cc(-c2ccccc2)oc2cc(O)c(O)c(O)c12` [baicalein], the “activity at GABA receptors” value with GABA receptors was “agonists of GABA receptors”. For the compound `O=C(O)c1cccnc1` [nicotinic acid], in series [2], the “patients showing significant improvements in mood” value was 14 of 15. On to `[Mg+2]` [magnesium], for which the “recovery from major depression” value in series [3] was “Rapid recovery”.
